Experimental findings from patent publication US6653110B2 (Ajinomoto Co., Inc., priority 2001, dated 2003) are described below.

The structures appear in SMILES notation.

This assay deals with Enterobacter agglomerans AJ13601 strain. Put plainly: Growth inhibition by organic acid at acidic pH (main culture in jar fermenter). The assay is classed as cell-based. The conditions noted are these: for Growth inhibition: organic acid 0.5 g/L in main culture medium, pH 4.5, 34° C. The procedure: Therefore, an experiment concerning the growth inhibition by an organic acid was performed at an acidic pH.
The Enterobacter agglomerans AJ13601 strain was cultured on LBG agar medium (10 g/L of trypton, 5 g/L of yeast extract, 10 g/L of NaCl and 15 g/L of agar) containing 25 mg/L of tetracycline hydrochloride and 25 mg/L of chloramphenicol at 30° C. for 14 hours, and one platinum loop of the cells were taken and inoculated into 300 mL of a seed culture medium having the following composition in a 1 L-volume jar fermenter to perform seed culture at 34° C. at pH 6.0.
50 g/L of sucrose, 0.4 g/L of magnesium sulfate heptahydrate, 4.0 g/L of ammonium sulfate, 2.0 g/L of monopotassium dihydrogenphosphate, 4.0 g/L of yeast extract, 0.01 g/L of ferrous sulfate heptahydrate, 0.01 g/L manganese sulfate pentahydrate, 0.4 g/L of L-lysine hydrochloride, 0.4 g/L of DL-methionine, 0.4 g/L of DL-α,ε-diaminopimelic acid, 25 mg/L of tetracycline hydrochloride and 25 mg/L of chloramphenicol
pH was controlled by adding ammonia gas during the culture. The seed culture was terminated by observing depletion of the saccharide in the seed culture medium as a marker, and the seed culture broth was inoculated into 300 mL of a main culture medium contained in 1 L-volume jar fermenters in an amount of 20% of the volume of the main culture medium to perform the main culture. The composition of the main culture medium is shown below. When an experiment for the growth inhibition by an organic acid is performed, the experiment was performed by adding the organic acid at a predetermined concentration.
20 g/L of glucose, 0.4 g/L of magnesium sulfate heptahydrate, 5.0 g/L of ammonium sulfate, 6.0 g/L of monopotassium dihydrogenphosphate, 1.5 g/L of sodium chloride, 0.01 g/L of ferrous sulfate heptahydrate, 0.01 g/L of manganese sulfate pentahydrate, 0.8 g/L of L-lysine hydrochloride, 0.6 g/L of DL-methionine, 0.6 g/L of DL-α,ε-diaminopimelic acid, 25 mg/L of tetracycline hydrochloride, 25 mg/L of chloramphenicol, 6.0 g/L of yeast extract and 0.75 g/L of calcium chloride dihydrate
The culture temperature was adjusted to 34° C., and pH was controlled to a predetermined pH by adding ammonia gas.
Experiments for the growth inhibition effect at an acidic pH (pH 4.5) were first performed with various organic acids.

Regarding `CCC(=O)O` [Propionic acid], the Growth inhibition entry is “Observed”. The Growth inhibition entry (listed as propionic acid) was “evident growth inhibition”.
Regarding `O=C(O)CCC(=O)O` [Succinic acid], the Growth inhibition result was “Not observed”. Where the note is “listed as succinic acid”, the Growth inhibition result is reported as “did not show growth inhibition”.
Regarding `CC(=O)O` [Acetic acid], the Growth inhibition entry is listed as “Observed”. Under “listed as acetic acid”, the Growth inhibition entry is “evident growth inhibition”.
In the case of `CC(O)C(=O)O` (stereo not drawn) [Lactic acid], the Growth inhibition entry was “Not observed”. Also, where the note is “listed as lactic acid”, the Growth inhibition result is recorded as “growth rate comparable to that obtained with the control medium”.
Turning to `O=C(O)CC(O)C(=O)O` (stereo not drawn) [malic acid], the Growth inhibition result was “did not show growth inhibition”.
For `O=CO` [Formic acid], the Growth inhibition result is recorded as “Observed”. For the same compound, the growth of cells result (formic acid 0.5 g/L, pH 4.5 (FIG. 11)) is “hardly observed”. Also, the “pH region in which growth inhibition by formic acid was not observed” value (formic acid concentration 0.5 g/L, inhibition observed at lower pH (FIG. 11)) is at least 5.5. For the same compound, the Growth inhibition result (listed as formic acid) is on record as “evident growth inhibition”. The “formic acid concentration in the medium at which growth inhibition was not observed” value (pH 4.5 (FIG. 12)) is reported as at most 0.20 g/L.
As for `O=C(O)/C=C/C(=O)O` [fumaric acid], the Growth inhibition result was “did not show growth inhibition”.
